Measurements from paper PMC10213937 (Frontiers in Pharmacology, 2023).
Like-named read-outs stand apart in the source and are kept apart here.

What was measured:
[1] = Plasma concentrations of ATO, metabolites and VOR in patients (HPLC-MS/MS); type: in vivo, human; parameters: Concentration in human blood samples: unit not given here; conditions: for Concentration in human blood samples: n = 3; for Decrease of metabolite concentration in the VOR group: VOR + ATO vs ATO alone
From the text: The experimental procedures were approved by the Ethics Committee of Shenzhen Hospital of Southern Medical University, and conducted in accordance with the Declaration of Helsinki (No. NYSZYYEC20180017). Subjects were selected from patients seen in the Department of Critical Care Medicine of Shenzhen Hospital of Southern Medical University, who were diagnosed with fungal infections complicated by cardiovascular and cerebrovascular diseases. Written informed consent was obtained from three patients aged 20-55 years. […] All procedures followed the ethical principles of the World Medical Association (WMA) Declaration of Helsinki and were approved by the Medical Ethics Committee of Shenzhen Hospital. […] Prelude […] The injection volume is 2 μL.

[2] = Stability in rat blood plasma (HPLC-MS/MS validation); conditions: n = 5
[3] = molecular target: ABCC2 (Homo sapiens, UniProt Q92887); assay: ATO uptake/transport in cell transport models, ABCC2; type: cell-based; conditions: ATO as substrate, MK571 20 μM
[4] = Pharmacokinetic interaction study in rats, Study II: VOR with or without ATO; type: in vivo; conditions: male, Sprague-Dawley, rat, plasma, po, 20 mg/kg; for AUC(0-t): read-out: AUC0–24h
Description: Considering the clinical dosage of each drug and the dose equivalence between rats and human subjects, the corresponding quantity of drug powder was taken and resuspended with normal saline to prepare the drug-containing administration solution before treatment.
Treatment of the blood plasma: 40 µL of blood plasma was mixed with 10 µL of internal standard working solution (500 ng/ml) and acidified with 100 µL CH3COONa (0.1 mol/L). After the methyl tert-butyl (1 ml) was added, the mixture was vortexed for 5 min and centrifuged at 3000 r/min for 10 min at 4°C. The supernatant was removed into another 10 ml conical glass tube and dried in a rotary evaporator at 45°C. The residue was redissolved in 100 µL methanol and vortexed for 1 min, followed by HPLC-MS/MS analysis.
A Thermo Scientific™ TSQ Quantiva™ triple-stage quadrupole mass spectrometer (Thermo Fisher Scientific, MA, USA) equipped with a Thermo Scientific™ OptaMax™ NG ion source was used for the experiments. Prelude SPLC™ System samples, pretreatment technology (TurboFlow Eddy current purification), and a Thermo Scientific liquid chromatography system were also connected to the mass spectrometer. The HPLC conditions were as follows: column, Thermo Hypersil Gold C18 column (2.1 × 100 mm, 1.9 μm), column temperature maintained at 40 °C; TurboFlow column, Thermo Cyclone TM-P (0.5 × 50 mm) (ThermoFisher Scientific, MA, USA). The injection volume is 2 μL.
The analytes were quantified by selective reaction monitoring (SRM) that used heating electrospray ionization (H-ESI) in the positive ion mode. The main working parameters of the mass spectrometry were regulated as follows: ion spray voltage, 3 kV; capillary temperature, 350°C; sheath gas (N2) flow, 45 Arb; auxiliary gas (N2) flow, 10 Arb; and collision gas (Ar) flow, 2 mTorr. […] Thermo Scientific™ Pinpoint™ software version 1.3 (ThermoFisher Scientific, MA, USA) was used for data acquisition.
The blood samples (0.2 ml aliquots) were collected after taking a single dose of the test drug, which was the same as described in Study I. The blood samples were preserved on ice for further processing; after centrifuging at 4000 rpm for 5 min, the plasma samples were obtained and stored at −80°C until further analysis was performed. […] Non-compartmental pharmacokinetic analysis of plasma data was conducted using DAS (2.0 version, BioGuider Co., Shanghai, China) to calculate the parameters in the pharmacokinetic study.

[5] = system: CYP3A; assay: Inhibition by VOR of ATO metabolism in rat liver microsomes; type: in vitro ADME; conditions: pH 7.4, probe atorvastatin (ATO), 2 μM
Description: The incubations were performed in duplicate.

[6] = rat
[7] = system: CYP3A; assay: in vitro; conditions: rat, microsomes
[8] = ATO 20 mg alone, 0 h after taking ATO
[9] = ATO 20 mg alone, 1 h after taking ATO
[10] = ATO 20 mg alone, 2 h after taking ATO
[11] = ATO 20 mg alone, 12 h after taking ATO
[12] = ATO 20 mg alone, 24 h after taking ATO
[13] = VOR + ATO (VOR iv 6 mg/kg day 1, 4 mg/kg days 2–3), 0 h after taking ATO
[14] = first of four printed values (1 h by Table 1)
[15] = fourth of four printed values (24 h by Table 1)
[16] = second of four printed values (2 h by Table 1)
[17] = third of four printed values (12 h by Table 1)
[18] = VOR + ATO, 1 h after taking ATO
[19] = VOR + ATO, 2 h after taking ATO
[20] = VOR + ATO, 12 h after taking ATO
[21] = VOR + ATO, 24 h after taking ATO
[22] = 24 h at 25℃, nominal 0.05 ng/mL
[23] = three freeze-thaw cycle (−80℃/25℃), nominal 0.05 ng/mL
[24] = three freeze-thaw cycle (−80℃/25℃), nominal 5 ng/mL
[25] = three freeze-thaw cycle (−80℃/25℃), nominal 80 ng/mL
[26] = ATO 2 mg/kg + VOR 20 mg/kg oral

Sequence of ABCC2 (Q92887 whole entry): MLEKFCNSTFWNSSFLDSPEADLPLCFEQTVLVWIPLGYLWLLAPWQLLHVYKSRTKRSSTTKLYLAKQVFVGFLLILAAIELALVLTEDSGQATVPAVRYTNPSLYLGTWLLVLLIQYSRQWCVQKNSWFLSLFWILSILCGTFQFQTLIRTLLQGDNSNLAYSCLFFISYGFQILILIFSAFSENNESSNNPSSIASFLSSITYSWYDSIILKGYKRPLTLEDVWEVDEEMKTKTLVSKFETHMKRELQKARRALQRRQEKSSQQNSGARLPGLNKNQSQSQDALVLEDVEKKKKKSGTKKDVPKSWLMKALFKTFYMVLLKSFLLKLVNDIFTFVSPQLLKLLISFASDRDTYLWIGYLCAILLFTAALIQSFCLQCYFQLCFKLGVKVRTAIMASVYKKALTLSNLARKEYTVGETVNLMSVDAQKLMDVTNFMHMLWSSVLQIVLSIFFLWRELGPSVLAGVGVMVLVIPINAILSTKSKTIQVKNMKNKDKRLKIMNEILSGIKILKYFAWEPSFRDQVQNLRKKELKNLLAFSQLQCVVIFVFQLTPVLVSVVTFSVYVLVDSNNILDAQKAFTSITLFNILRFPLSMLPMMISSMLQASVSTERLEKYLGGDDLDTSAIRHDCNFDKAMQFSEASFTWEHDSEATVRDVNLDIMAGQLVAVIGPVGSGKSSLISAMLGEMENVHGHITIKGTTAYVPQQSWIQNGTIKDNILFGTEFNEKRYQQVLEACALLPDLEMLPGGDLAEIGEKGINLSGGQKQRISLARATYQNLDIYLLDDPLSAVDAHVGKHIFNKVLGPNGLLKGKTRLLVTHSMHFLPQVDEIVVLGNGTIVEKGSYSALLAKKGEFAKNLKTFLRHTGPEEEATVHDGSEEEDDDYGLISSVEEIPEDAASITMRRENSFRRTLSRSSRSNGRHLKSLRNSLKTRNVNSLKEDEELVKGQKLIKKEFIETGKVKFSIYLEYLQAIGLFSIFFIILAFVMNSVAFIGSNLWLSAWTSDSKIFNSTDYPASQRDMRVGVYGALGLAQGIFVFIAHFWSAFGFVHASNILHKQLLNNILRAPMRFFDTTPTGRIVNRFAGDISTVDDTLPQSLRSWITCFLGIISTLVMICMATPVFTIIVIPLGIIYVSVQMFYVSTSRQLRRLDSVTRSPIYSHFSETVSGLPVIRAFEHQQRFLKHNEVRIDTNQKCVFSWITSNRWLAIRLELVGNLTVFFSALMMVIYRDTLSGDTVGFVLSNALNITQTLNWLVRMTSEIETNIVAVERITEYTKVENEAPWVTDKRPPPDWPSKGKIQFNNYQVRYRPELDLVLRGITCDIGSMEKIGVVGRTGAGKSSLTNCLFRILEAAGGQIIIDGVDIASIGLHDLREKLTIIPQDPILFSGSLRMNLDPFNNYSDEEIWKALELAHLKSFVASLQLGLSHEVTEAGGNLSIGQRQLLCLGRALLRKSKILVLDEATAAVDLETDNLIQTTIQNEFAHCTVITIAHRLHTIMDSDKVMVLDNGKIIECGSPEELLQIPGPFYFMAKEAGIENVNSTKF

Compound | Concentration in human blood samples [1, 8] | Concentration in human blood samples [1, 9] | Concentration in human blood samples [1, 10] | Concentration in human blood samples [1, 11] | Concentration in human blood samples [1, 12] | Concentration in human blood samples [1, 13] | Decrease of metabolite concentration in the VOR group [1, 14] | Decrease of metabolite concentration in the VOR group [1, 15] | Decrease of metabolite concentration in the VOR group [1, 16] | Decrease of metabolite concentration in the VOR group [1, 17] | Concentration in human blood samples [1, 18] | Concentration in human blood samples [1, 19] | Concentration in human blood samples [1, 20] | Concentration in human blood samples [1, 21] | Stability, %RE [2, 22] | Stability, measured concentration (mean ± SD) [2, 22] | Stability, %RE ([2]; 24 h at 25℃, nominal 5 ng/mL) | Stability, measured concentration (mean ± SD) ([2]; 24 h at 25℃, nominal 5 ng/mL) | Stability, %RE ([2]; 24 h at 25℃, nominal 80 ng/mL) | Stability, measured concentration (mean ± SD) ([2]; 24 h at 25℃, nominal 80 ng/mL) | other results
CC(C)c1c(C(=O)Nc2ccccc2O)c(-c2ccccc2)c(-c2ccc(F)cc2)n1CCC(O)CC(O)CC(=O)O (centres unmarked) [2-Hydroxy-ATO, 2-hydroxy-ATO] | 3.401 ± 1.028 | 21.602 ± 1.929 | 15.196 ± 1.779 | 10.106 ± 2.969 | 3.950 ± 1.867 | 4.239 + 2.160 | 74.34% | 44.30% | 33.53% | 55.72% | 5.543 + 2.235 | 10.100 + 1.896 | 4.475 + 2.687 | 2.200 + 1.184 | -0.35% | 0.047 ± 0.005 ng/mL | -8.25% | 4.538 ± 0.424 ng/mL | -6.25% | 76.114 ± 5.314 ng/mL | Stability, %RE [2, 23]: -8.35%; Stability, measured concentration (mean ± SD) [2, 23]: 0.044 ± 0.004 ng/mL; Stability, %RE [2, 24]: -1.35%; Stability, measured concentration (mean ± SD) [2, 24]: 4.554 ± 0.568 ng/mL; Stability, %RE [2, 25]: -10.28%; Stability, measured concentration (mean ± SD) [2, 25]: 72.580 ± 4.221 ng/mL
CC(C)c1c(C(=O)Nc2ccc(O)cc2)c(-c2ccccc2)c(-c2ccc(F)cc2)n1CC[C@@H](O)C[C@@H](O)CC(=O)O [4-Hydroxy-ATO, 4-hydroxy-ATO] | 4.073 ± 2.168 | 15.510 ± 1.283 | 14.783 ± 3.501 | 6.863 ± 1.586 | 6.103 ± 2.640 | 5.047 + 0.882 | 47.45% | 41.62% | 55.78% | 45.85% | 8.150 + 1.219 | 6.537 + 0.304 | 3.717 + 0.807 | 3.563 + 1.830 | -7.78% | 0.045 ± 0.007 ng/mL | -2.31% | 4.625 ± 0.337 ng/mL | -9.07% | 73.581 ± 6.587 ng/mL | Stability, %RE [2, 23]: -9.87%; Stability, measured concentration (mean ± SD) [2, 23]: 0.044 ± 0.005 ng/mL; Stability, %RE [2, 24]: -1.25%; Stability, measured concentration (mean ± SD) [2, 24]: 4.501 ± 0.411 ng/mL; Stability, %RE [2, 25]: -9.69%; Stability, measured concentration (mean ± SD) [2, 25]: 72.334 ± 7.338 ng/mL
CN(C)C(=O)CCSC(SCCC(=O)O)c1cccc(/C=C/c2ccc3ccc(Cl)cc3n2)c1 (centres unmarked) [MK571] | – | – | – | – | – | – | – | – | – | – | – | – | – | – | – | – | – | – | – | – | Effect on the activity (efflux) of ABCC2 [3]: reversed the efflux
C[C@@H](c1ncncc1F)[C@](O)(Cn1cncn1)c1ccc(F)cc1F [VOR, Voriconazole] | 0.007 + 0.012 | 0.000 + 0.000 | 0.007 + 0.012 | 0.000 + 0.000 | 0.007 + 0.012 | 2.870 + 0.325 | – | – | – | – | 2.673 + 0.465 | 2.563 + 0.122 | 2.780 + 0.317 | 2.820 + 0.540 | – | – | – | – | – | – | AUC(0-inf) [4, 26]: 3280 ± 835 ng·h/mL; Cmax [4, 26]: 826 ± 166 ng/mL; Tmax [4, 26]: 0.917 ± 0.204 h; half-life [4, 26]: 2.6 ± 0.419 h; AUC(0-t) [4, 26]: 3250 ± 862 ng·h/mL; AUC(0-inf) ([4]; NS + VOR 20 mg/kg oral): 3640 ± 798 ng·h/mL; Cmax ([4]; NS + VOR 20 mg/kg oral): 829 ± 246 ng/mL; Tmax ([4]; NS + VOR 20 mg/kg oral): 1.25 ± 0.612 h; half-life ([4]; NS + VOR 20 mg/kg oral): 2.58 ± 0.317 h; AUC(0-t) ([4]; NS + VOR 20 mg/kg oral): 3630 ± 802 ng·h/mL; MRT inf ([4]; NS + VOR 20 mg/kg oral, read-out: MRT0-∞): 3.53 ± 0.66 h; IC50 at 20 min [5]: 45.9 µM; Effect on the activity (efflux) of ABCC2 [3]: no effect; Stability, measured concentration (mean ± SD) ([6]; 0.05 ng/mL): 0.045 ± 0.004 ng/mL; Stability, measured concentration (mean ± SD) ([6]; 5 ng/mL): 4.558 ± 0.318 ng/mL; Stability, measured concentration (mean ± SD) ([6]; 80 ng/mL): 75.238 ± 5.338 ng/mL; Stability, measured concentration (mean ± SD) ([6]; 24 h, 0.05 ng/mL): 0.048 ± 0.004 ng/mL; Stability, measured concentration (mean ± SD) ([6]; 24 h, 5 ng/mL): 4.962 ± 0.301 ng/mL; Stability, measured concentration (mean ± SD) ([6]; 24 h, 80 ng/mL): 79.264 ± 5.131 ng/mL; IC50 [7]: 49.8 µM
